Test results published in patent US10584117B2, “1,3,4-oxadiazole amide derivative compound as histone deacetylase 6 inhibitor, and pharmaceutical composition containing same” (Chong Kun Dang Pharmaceutical Corp., priority 2015, dated 2020).

Molecular target: T1, human recombinant HDAC6 (Homo sapiens, UniProt Q9UBN7)
T1 construct: purchased Calbiochem 382180
T1 sequence (Q9UBN7 1-1215): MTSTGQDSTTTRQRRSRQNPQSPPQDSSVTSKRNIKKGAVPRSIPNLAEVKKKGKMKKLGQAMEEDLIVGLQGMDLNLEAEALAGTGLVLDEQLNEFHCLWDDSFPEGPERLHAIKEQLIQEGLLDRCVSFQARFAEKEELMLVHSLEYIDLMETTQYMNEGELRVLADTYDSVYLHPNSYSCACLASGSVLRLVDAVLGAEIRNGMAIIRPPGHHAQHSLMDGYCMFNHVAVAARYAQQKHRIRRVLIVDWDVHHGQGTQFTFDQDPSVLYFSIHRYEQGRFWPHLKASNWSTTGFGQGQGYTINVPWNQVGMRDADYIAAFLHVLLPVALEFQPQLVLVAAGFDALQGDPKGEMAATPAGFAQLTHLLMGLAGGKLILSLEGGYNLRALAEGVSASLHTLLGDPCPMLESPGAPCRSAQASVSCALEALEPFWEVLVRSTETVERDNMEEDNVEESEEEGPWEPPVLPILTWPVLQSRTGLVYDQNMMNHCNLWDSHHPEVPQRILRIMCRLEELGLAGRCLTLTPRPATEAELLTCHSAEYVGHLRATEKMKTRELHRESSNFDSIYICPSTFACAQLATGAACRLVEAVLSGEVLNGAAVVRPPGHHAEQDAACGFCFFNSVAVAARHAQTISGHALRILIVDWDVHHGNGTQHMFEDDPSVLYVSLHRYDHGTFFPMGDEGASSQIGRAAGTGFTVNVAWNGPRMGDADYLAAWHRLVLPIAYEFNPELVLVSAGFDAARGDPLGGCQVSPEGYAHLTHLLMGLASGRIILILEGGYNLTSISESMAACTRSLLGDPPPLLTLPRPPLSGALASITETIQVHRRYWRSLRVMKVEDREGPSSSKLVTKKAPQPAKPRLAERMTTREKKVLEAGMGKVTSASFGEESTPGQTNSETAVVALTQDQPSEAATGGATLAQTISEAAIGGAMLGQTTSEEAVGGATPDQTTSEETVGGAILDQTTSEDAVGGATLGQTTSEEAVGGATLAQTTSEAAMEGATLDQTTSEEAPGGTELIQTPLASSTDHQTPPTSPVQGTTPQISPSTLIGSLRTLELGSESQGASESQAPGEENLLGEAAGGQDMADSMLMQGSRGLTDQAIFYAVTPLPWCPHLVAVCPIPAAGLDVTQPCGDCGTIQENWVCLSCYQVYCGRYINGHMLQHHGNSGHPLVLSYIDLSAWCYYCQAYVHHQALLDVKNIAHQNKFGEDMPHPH
Assay: HDAC enzyme activity inhibition assay (HDAC6, fluorimetric kit)
Type: biochemical
Details: for HDAC6 selectivity (fold): HDAC6 versus HDAC1; for IC50: same protocol as the HDAC1 test
Protocol: In order to examine the HDAC6 selectivity of the compounds of formula I of the present invention by HDAC1 and HDAC6 enzymatic activity inhibition assays, an experiment was performed using a conventional substance as a control. HDAC enzyme activity was measured using a HDAC Fluorimetric Drug Discovery Kit (BML-AK511, 516) from Enzo Life Science. For the HDAC1 enzyme activity test, human recombinant HDAC1 (BML-SE456) was used as an enzyme source, and Fluor de Lys®-“SIRT1 (BNL-KI177) was used as a substrate. A 5-fold dilution of the compound was seeded into a 96-well plate, and then 0.3 μg of the enzyme and 10 μM of the substrate were added to each well of the plate and allowed to react at 30° C. for 60 minutes. Then, Fluor de Lys®-Developer II (BML-KI176) was added thereto and allowed to react for 30 minutes, after which the fluorescence value (Ex 360, Em 460) was measured using a multi-plate reader (Flexstation 3, Molecular Device). The HDAC6 enzyme was tested using human recombinant HDAC6 (382180) from Calbiochem, according to the same protocol as the HDAC1 enzyme activity test method. Based on the resulting values, each IC50 value was calculated using GraphPad Prism4.0 program.

| HDAC6 selectivity (fold) | IC50 [µM] | SMILES |
| --- | --- | --- |
| 1136 | 0.088 | CN1CCC(C(=O)N(Cc2ccc(-c3nnc(C(F)F)o3)cc2F)c2ccccc2)CC1 [Compound 11208, N-(4-(5-(difluoromethyl)-1,3,4-oxadiazol-2-yl)-2-fluorobenzyl)-1-methyl-N-phenylpiperidine-4-carboxamide] |
| 2381 | 0.042 | CS(=O)(=O)N1CC(C(=O)N(Cc2ccc(-c3nnc(C(F)(F)F)o3)cc2F)c2ccccc2)C1 [Compound 11237, N-(2-fluoro-4-(5-(trifluoromethyl)-1,3,4-oxadiazol-2-yl)benzyl)-1-(methanesulfonyl)-N-phenylazetidine-3-carboxamide] |
| 1031 | 0.097 | CCN1CCC(C(=O)N(Cc2ccc(-c3nnc(C(F)F)o3)cc2F)c2ccccc2)CC1 [Compound 11209, N-(4-(5-(difluoromethyl)-1,3,4-oxadiazol-2-yl)-2-fluorobenzyl)-1-ethyl-N-phenylpiperidine-4-carboxamide] |
| 1695 | 0.059 | O=C(c1ccncc1)N(Cc1ccc(-c2nnc(C(F)F)o2)cc1)c1ccccc1 [Compound 11108, N-(4-(5-(difluoromethyl)-1,3,4-oxadiazol-2-yl)benzyl)-N-phenylisonicotinamide] |
| 813 | 0.123 | CS(=O)(=O)N1CCC(C(=O)N(Cc2ccc(-c3nnc(C(F)(F)F)o3)cc2F)c2ccccc2)CC1 [Compound 11207, N-(2-fluoro-4-(5-(trifluoromethyl)-1,3,4-oxadiazol-2-yl)benzyl)-1-(methylsulfonyl)-N-phenylpiperidine-4-carboxamide] |
| 1370 | 0.073 | O=C(CN1CCCC1)N(Cc1ccc(-c2nnc(C(F)F)o2)cc1F)c1ccc(F)c(Cl)c1 [Compound 11534, N-(3-chloro-4-fluorophenyl)-N-(4-(5-(difluoromethyl)-1,3,4-oxadiazol-2-yl)-2-fluorobenzyl)-2-(pyrolidin-1-yl)acetamide] |
| 4167 | 0.024 | O=C(c1cccnc1)N(Cc1ccc(-c2nnc(C(F)F)o2)cn1)c1cccc(F)c1 [Compound 11376, N-((5-(5-(difluoromethyl)-1,3,4-oxadiazol-2-yl)pyridin-2-yl)methyl)-N-(3-fluorophenyl)nicotinamide] |
| 847 | 0.118 | CC(C)CC(=O)N(Cc1ccc(-c2nnc(C(F)F)o2)cc1F)c1cccc(F)c1 [Compound 11358, N-(4-(5-(difluoromethyl)-1,3,4-oxadiazol-2-yl)-2-fluorobenzyl)-N-(3-fluorophenyl)-3-methylbutanamide] |
| 2041 | 0.049 | CCCN1CC(C(=O)N(Cc2ccc(-c3nnc(C(F)F)o3)cc2F)c2cccc(F)c2)C1 [Compound 11327, N-(4-(5-(difluoromethyl)-1,3,4-oxadiazol-2-yl)-2-fluorobenzyl)-N-(3-fluorophenyl)-1-propylazetidine-3-carboxamide] |
| 483 | 0.207 | CCC(=O)N1CCC(C(=O)N(Cc2ccc(-c3nnc(C(F)(F)F)o3)cc2)c2ccccc2)CC1 [Compound 11162, N-phenyl-1-propionyl-N-(4-(5-(trifluoromethyl)-1,3,4-oxadiazol-2-yl)benzyl)piperidine-4-carboxamide] |
| 298 | 0.336 | O=C(C1CCN(C(=O)C(F)(F)F)CC1)N(Cc1ccc(-c2nnc(C(F)(F)F)o2)cc1)c1ccccc1 [Compound 11164, N-phenyl-1-(2,2,2-trifluoroacetyl)-N-(4-(5-(trifluoromethyl)-1,3,4-oxadiazol-2-yl)benzyl)piperidine-4-carboxamide] |
| 3846 | 0.026 | CCN1CC(C(=O)N(Cc2ccc(-c3nnc(C(F)F)o3)cc2F)c2ccccc2)C1 [Compound 11239, N-(4-(5-(difluoromethyl)-1,3,4-oxadiazol-2-yl)-2-fluorobenzyl)-1-ethyl-N-phenylazetidine-3-carboxamide] |
| 3125 | 0.032 | O=C(c1ccncc1)N(Cc1ccc(-c2nnc(C(F)F)o2)cn1)c1cccc(F)c1 [Compound 11360, N-((5-(5-(difluoromethyl)-1,3,4-oxadiazol-2-yl)pyridin-2-yl)methyl)-N-(3-fluorophenyl)isonicotinamide] |
| 2857 | 0.035 | CC(=O)N1CC(C(=O)N(Cc2ccc(-c3nnc(C(F)F)o3)cc2F)c2ccccc2)C1 [Compound 11241, 1-acetyl-N-(4-(5-(difluoromethyl)-1,3,4-oxadiazol-2-yl)-2-fluorobenzyl)-N-phenylazetidine-3-carboxamide] |
| 690 | 0.145 | O=C(CN1CCS(=O)(=O)CC1)N(Cc1ccc(-c2nnc(C(F)F)o2)cc1F)c1ccc(F)c(Cl)c1 [Compound 11610, N-(3-chloro-4-fluorophenyl)-N-(4-(5-(difluoromethyl)-1,3,4-oxadiazol-2-yl)-2-fluorobenzyl)-2-(1,1-dioxidothiomorpholino)acetamide] |
| 714 | 0.14 | O=C(C1CCN(C(=O)C(F)(F)F)CC1)N(Cc1ccc(-c2nnc(C(F)F)o2)cc1F)c1ccccc1 [Compound 11214, N-(4-(5-(difluoromethyl)-1,3,4-oxadiazol-2-yl)-2-fluorobenzyl)-N-phenyl-1-(2,2,2-trifluoroacetyl)piperidine-4-carboxamide] |
| 3125 | 0.032 | CC(C)C(=O)N1CC(C(=O)N(Cc2ccc(-c3nnc(C(F)F)o3)cc2F)c2ccccc2)C1 [Compound 11243, N-(4-(5-(difluoromethyl)-1,3,4-oxadiazol-2-yl)-2-fluorobenzyl)-1-isobutyryl-N-phenylazetidine-3-carboxamide] |
| 877 | 0.114 | CCN1CCC(C(=O)N(Cc2ccc(-c3nnc(C(F)(F)F)o3)cc2F)c2ccccc2)CC1 [Compound 11201] |
| 1370 | 0.073 | CC(C)C(=O)N1CC(C(=O)N(Cc2ccc(-c3nnc(C(F)(F)F)o3)cc2F)c2ccccc2)C1 [Compound 11236, N-(2-fluoro-4-(5-(trifluoromethyl)-1,3,4-oxadiazol-2-yl)benzyl)-1-isobutyryl-N-phenylazetidine-3-carboxamide] |
| 1111 | 0.09 | CCC(=O)N1CC(C(=O)N(Cc2ccc(-c3nnc(C(F)(F)F)o3)cc2)c2ccccc2)C1 [Compound 11157, N-phenyl-1-propionyl-N-(4-(5-(trifluoromethyl)-1,3,4-oxadiazol-2-yl)benzyl)azetidine-3-carboxamide] |
| 478 | 0.209 | CN1CCC(C(=O)N(Cc2ccc(-c3nnc(C(F)(F)F)o3)cc2)c2ccccc2)CC1 [Compound 11140, 1-methyl-N-phenyl-N-(4-(5-(trifluoromethyl)-1,3,4-oxadiazol-2-yl)benzyl)piperidine-4-carboxamide] |
| 1587 | 0.063 | NC(=O)[C@@H]1CCCN1CC(=O)N(Cc1ccc(-c2nnc(C(F)F)o2)cc1F)c1ccc(F)c(Cl)c1 [Compound 11538, (S)-1-(2-((3-chloro-4-fluorophenyl) (4-(5-(difluoromethyl)-1,3,4-oxadiazol-2-yl)-2-fluorobenzyl)amino)-2-oxoethyl)pyrrolidine-2-carboxamide] |
